ChEMBL document CHEMBL2069212, “Identification and in vivo and in vitro characterization of long acting and melanocortin 4 receptor (MC4-R) selective α-melanocyte-stimulating hormone (α-MSH) analogues” (J Med Chem, 2012)
Activity calls are given as the source filed them. No cut-off for these calls is given here.

What was measured:
Rattus norvegicus [1] = experiment: Antiobesity activity in Sprague-Dawley rat assessed as reduction of food intake at 3 mg/kg, sc qd measured up to 7 hrs relative to control; assay type: functional; parameters: scale not given: the % may be the effect or the level left; conditions: route subcutaneous
[2] = Dissociation constant, pKa of the compound; assay type: physicochemical
Rattus norvegicus [3] = experiment: Antiobesity activity in Sprague-Dawley rat assessed as reduction of food intake at 3 mg/kg, sc qd measured after 24 to 48 hrs relative to control; assay type: functional; conditions: route subcutaneous
Melanocortin receptor 5 = Melanocortin receptor 5 (Homo sapiens, UniProt P33032); experiment: Displacement of [125I]-NAD-alpha-MSH from human recombinant MC3 receptor human MC5 expressed in BHK570 cells after 1 hr in presence of ovalbumin; assay type: cell-based
Sequence of Melanocortin receptor 5 (P33032 whole entry): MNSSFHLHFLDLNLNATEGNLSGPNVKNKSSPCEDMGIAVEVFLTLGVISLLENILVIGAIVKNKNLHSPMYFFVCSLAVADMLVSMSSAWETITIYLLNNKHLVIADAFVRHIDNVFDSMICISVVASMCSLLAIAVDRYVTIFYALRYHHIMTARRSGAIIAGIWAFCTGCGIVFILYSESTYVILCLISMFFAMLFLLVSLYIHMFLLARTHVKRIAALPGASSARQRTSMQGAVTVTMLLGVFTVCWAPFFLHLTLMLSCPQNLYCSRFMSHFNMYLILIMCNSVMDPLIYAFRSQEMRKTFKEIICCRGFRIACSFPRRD

[4] = molecular target: Melanocyte-stimulating hormone receptor (Homo sapiens, UniProt Q01726); experiment: Displacement of [125I]-NAD-alpha-MSH from human recombinant MC1 receptor expressed in BHK570 cells after 90 mins in presence of ovalbumin; assay type: cell-based
Sequence of Melanocyte-stimulating hormone receptor (Q01726 whole entry): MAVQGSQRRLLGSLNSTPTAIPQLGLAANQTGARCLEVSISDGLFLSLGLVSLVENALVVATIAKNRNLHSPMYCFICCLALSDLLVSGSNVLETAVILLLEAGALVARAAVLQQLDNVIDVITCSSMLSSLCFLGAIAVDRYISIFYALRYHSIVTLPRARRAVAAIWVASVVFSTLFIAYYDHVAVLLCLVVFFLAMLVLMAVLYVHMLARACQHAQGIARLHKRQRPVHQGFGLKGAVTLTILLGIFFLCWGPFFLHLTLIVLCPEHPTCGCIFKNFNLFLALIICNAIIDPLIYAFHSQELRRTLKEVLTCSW

Melanocortin receptor 4 [5] = molecular target: T1, Melanocortin receptor 4 (Homo sapiens, UniProt P32245); experiment: Agonist activity at human recombinant MC4 receptor expressed in BHK570 cells assessed as induction of […] accumulation in presence of 0.1% human serum albumin; assay type: functional, cell-based
T1 sequence (P32245 whole entry): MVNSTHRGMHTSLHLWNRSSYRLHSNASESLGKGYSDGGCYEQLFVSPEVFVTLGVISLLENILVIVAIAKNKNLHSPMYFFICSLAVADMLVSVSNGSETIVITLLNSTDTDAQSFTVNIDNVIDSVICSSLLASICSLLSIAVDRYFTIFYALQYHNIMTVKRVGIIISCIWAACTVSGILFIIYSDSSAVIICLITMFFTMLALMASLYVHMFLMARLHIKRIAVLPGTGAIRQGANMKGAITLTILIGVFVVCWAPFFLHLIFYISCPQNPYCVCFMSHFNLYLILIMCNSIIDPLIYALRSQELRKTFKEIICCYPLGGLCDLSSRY

Rattus norvegicus [6] = experiment: Antiobesity activity in Sprague-Dawley rat assessed as reduction of food intake at 3 mg/kg, sc qd measured after 7 to 24 hrs relative to control; assay type: functional; parameters: scale not given: the % may be the effect or the level left; conditions: route subcutaneous
Melanocortin receptor 4 [7] = molecular target: T1, Melanocortin receptor 4; experiment: Displacement of [125I]-NAD-alpha-MSH from MC4 receptor after 2 hrs by gamma counting in presence of ovalbumin
Melanocortin receptor 3 = Melanocortin receptor 3 (Homo sapiens, UniProt P41968); experiment: Displacement of [125I]-NAD-alpha-MSH from human recombinant MC3 receptor expressed in BHK570 cells after 1 hr in presence of ovalbumin; assay type: cell-based
Sequence of Melanocortin receptor 3 (P41968 whole entry): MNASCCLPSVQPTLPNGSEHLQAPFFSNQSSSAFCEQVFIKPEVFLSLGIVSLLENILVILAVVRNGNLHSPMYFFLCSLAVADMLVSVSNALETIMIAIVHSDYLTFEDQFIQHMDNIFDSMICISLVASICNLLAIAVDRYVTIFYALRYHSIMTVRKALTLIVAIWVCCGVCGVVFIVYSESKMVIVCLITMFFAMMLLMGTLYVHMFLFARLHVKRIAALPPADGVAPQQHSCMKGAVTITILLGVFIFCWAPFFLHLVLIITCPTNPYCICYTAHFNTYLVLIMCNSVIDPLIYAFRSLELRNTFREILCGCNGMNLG

[8] = molecular target: Melanocortin receptor 4 (Rattus norvegicus) (UniProt P70596); experiment: Agonist activity at rat MC4 receptor; assay type: functional
Sequence of Melanocortin receptor 4 (Rattus norvegicus) (P70596 whole entry): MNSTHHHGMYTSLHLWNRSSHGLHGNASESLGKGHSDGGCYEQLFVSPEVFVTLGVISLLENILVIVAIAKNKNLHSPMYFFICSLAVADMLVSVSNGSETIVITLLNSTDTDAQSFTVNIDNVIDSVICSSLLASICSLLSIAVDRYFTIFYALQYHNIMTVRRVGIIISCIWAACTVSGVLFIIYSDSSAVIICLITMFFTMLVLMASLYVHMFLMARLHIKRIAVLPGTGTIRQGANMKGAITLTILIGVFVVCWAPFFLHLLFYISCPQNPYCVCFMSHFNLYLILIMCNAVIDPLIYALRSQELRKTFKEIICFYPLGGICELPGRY

Melanocortin receptor 4 [9] = molecular target: T1, Melanocortin receptor 4; experiment: Agonist activity at human recombinant MC4 receptor expressed in BHK570 cells assessed as induction of […] accumulation relative to alpha-MSH in presence of 0.1% human serum albumin; assay type: functional, cell-based
[10] = Half life in human; assay type: ADME, organism-based; conditions: in vivo
[11] = Solubility of the compound at pH 3 to 8; assay type: physicochemical; conditions: buffer

pKa [2]	Ki [4] [nM]	Ki (Melanocortin receptor 4 [7]) [nM]	Activity [8]	Emax (Melanocortin receptor 4 [9]) [%]	half-life [10] [h]	Structure (SMILES)	Activity (Rattus norvegicus [1]) [%]	Food intake relative to control (Rattus norvegicus [3]) [%]	Ki (Melanocortin receptor 5) [nM]	EC50 (Melanocortin receptor 4 [5]) [nM]	Activity (Rattus norvegicus [6]) [%]	Ki (Melanocortin receptor 3) [nM]	solubility [11]
			Active	85		CCCC[C@H](NC(=O)[C@H](CNC(=O)CN(CC(=O)O)CC(=O)O)NC(=O)[C@H](Cc1cnc[nH]1)NC(=O)[C@H](CCC(N)=O)NC(=O)[C@H](CO)NC(=O)CNC(=O)COCCOCCNC(=O)CCCCCCCCCCCCCCCc1nnn[nH]1)C(=O)N[C@H]1CCC(=O)NCCCC[C@@H](C(N)=O)NC(=O)[C@H](Cc2c[nH]c3ccccc23)NC(=O)[C@H](CCCNC(=N)N)NC(=O)[C@@H](Cc2ccccc2)NC(=O)[C@@H]2C[C@@H](O)CN2C1=O	53	66			39		
				77		CCCC[C@H](NC(=O)[C@H](CCC(=O)O)NC(=O)[C@H](CCCNC(=N)N)NC(=O)[C@H](CCC(=O)O)NC(=O)[C@H](CCC(=O)O)NC(=O)CNC(=O)COCCOCCNC(=O)CCCCCCCCCCCCCCCc1nnn[nH]1)C(=O)N[C@H]1CCC(=O)NCCCC[C@@H](C(N)=O)NC(=O)[C@H](Cc2c[nH]c3ccccc23)NC(=O)[C@H](CCCNC(=N)N)NC(=O)[C@@H](Cc2ccccc2)NC(=O)[C@@H]2C[C@@H](O)CN2C1=O	74	98			90		
			Active			CCCC[C@H](NC(=O)[C@H](CN)NC(=O)[C@H](Cc1cnc[nH]1)NC(=O)[C@H](CCC(N)=O)NC(=O)[C@H](CO)NC(=O)CNC(=O)COCCOCCNC(=O)CCCCCCCCCCCCCCCc1nnn[nH]1)C(=O)N[C@H]1CCC(=O)NCCCC[C@@H](C(N)=O)NC(=O)[C@H](Cc2c[nH]c3ccccc23)NC(=O)[C@H](CCCNC(=N)N)NC(=O)[C@@H](Cc2ccccc2)NC(=O)[C@@H]2C[C@@H](O)CN2C1=O	49	73			45		

More lines, now with the values behind:

Structure (SMILES)	pKa [2]	Ki [4] [nM]	Ki (Melanocortin receptor 4 [7]) [nM]	Activity [8]	Emax (Melanocortin receptor 4 [9]) [%]	half-life [10] [h]	Activity (Rattus norvegicus [1]) [%]	Food intake relative to control (Rattus norvegicus [3]) [%]	Ki (Melanocortin receptor 5) [nM]	EC50 (Melanocortin receptor 4 [5]) [nM]	Activity (Rattus norvegicus [6]) [%]	Ki (Melanocortin receptor 3) [nM]	solubility [11]
CCCCCCCCCCCCCCCC(=O)NS(=O)(=O)CCCC(=O)NCC(=O)N[C@@H](CO)C(=O)N[C@@H](CCC(N)=O)C(=O)N[C@@H](Cc1cnc[nH]1)C(=O)N[C@@H](CO)C(=O)N[C@@H](CCCC)C(=O)N[C@H]1CCC(=O)NCCCC[C@@H](C(N)=O)NC(=O)[C@H](Cc2c[nH]c3ccccc23)NC(=O)[C@H](CCCNC(=N)N)NC(=O)[C@@H](Cc2ccccc2)NC(=O)[C@@H]2C[C@@H](O)CN2C1=O	2	230	0.11				40	58	1.2	0.15	36	8.2	
CCCC[C@H](NC(C)=O)C(=O)N[C@H]1CC(=O)NCCCC[C@@H](C(=O)O)NC(=O)[C@H](Cc2c[nH]c3ccccc23)NC(=O)[C@H](CCCNC(=N)N)NC(=O)[C@@H](Cc2ccccc2)NC(=O)[C@H](Cc2c[nH]cn2)NC1=O [BREMELANOTIDE]		6.4				2	23	100			91		
CCCC[C@H](NC(=O)[C@H](CNC(=O)CN(CC(=O)O)CC(=O)O)NC(=O)[C@H](Cc1cnc[nH]1)NC(=O)[C@H](CCC(N)=O)NC(=O)[C@H](CO)NC(=O)CNC(=O)COCCOCCNC(=O)CCCCCCCCCCCCCCCc1nnn[nH]1)C(=O)N[C@H]1CCC(=O)NCCCC[C@@H](C(N)=O)NC(=O)[C@H](Cc2c[nH]c3ccccc23)NC(=O)[C@H](CCCN=C(N)N)NC(=O)[C@@H](Cc2ccccc2)NC(=O)[C@@H]2C[C@@H](O)CN2C1=O									13	88		71	soluble
